From patent US8530680B2, “System and method for controlling growth of microorganisms with brominated furanones” (Syracuse University, priority 2008, dated 2013)

Tests used:
[1] = test system: P. aeruginosa strain PAO1; assay: Microplate based planktonic growth assay of P. aeruginosa; format: cell-based, Pseudomonas aeruginosa; conditions: for reduction of specific growth rate compared to furanone-free control: planktonic growth
Protocol: The antimicrobial activities of furanones on the planktonic growth of P. aeruginosa strain PAO1 was examined using a microplate based growth assay. An overnight culture of the strain grown in LB medium at 30° C. was used to inoculate M63 minimal medium supplemented with furanones at 0, 30 or 60 μg/mL to an optical density at 600 nm (OD600) of 0.05 in 96-well plates. The plates were then incubated at 30° C. with shaking at 200 rpm. The reading of OD600 was measured every 60 minutes for six hours using a microplate reader (ELx808, BioTek Instruments). Six replicates were tested for every sample. The synthesis of the brominated furanones, the structures of which are shown in FIGS. 1A and 1B, was according to Example 1.

[2] = test system: P. aeruginosa strain PAO1 biofilm formation; assay: Microplate-based biofilm assay (crystal violet, OD540) of P. aeruginosa; format: cell-based, Pseudomonas aeruginosa; conditions: 24 hours
Protocol: A microplate-based biofilm assay was used to further investigate whether furanones inhibit biofilm formation of P. aeruginosa strain PAO1. For this biofilm assay the strain was grown at 30° C. without shaking in M63 minimal medium containing 13.6 g/L KH2PO4, 2 g/L (NH4)2SO4, 0.5 mg/L FeSO4, 0.12 g/L MgSO4, 5 g/L vitamin free casamino acids and 5 g/L glucose (pH 7.0). The synthesis of the brominated furanones, the structures of which are shown in FIGS. 1A and 1B, was according to Example 1.
The overnight culture of P. aeruginosa was used to inoculate fresh M63 medium supplemented with furanones (0, 30 or 60 μg/mL) to an OD600 of 0.05 in 96-well plates. Four replicates were tested for each condition. The plates were incubated at 30° C. without shaking for 24 hours. The biofilm mass was quantified by following the protocol described previously. Briefly, the planktonic cells were carefully removed by pipetting and the plates with biofilms were washed three times with deionized H2O and dried by gently patting on a piece of paper towel. To quantify biofilms, the plates were stained with 0.1% crystal violet and incubated for 20 minutes at room temperature. The plates were then washed three times with deionized H2O to remove extra dyes. An OD540 was measured to quantify the biofilm on the bottom of each well.

[3] = test system: Gloeophyllum trabeum strain GT598; assay: Fungal growth on MEA plates with furanone; format: cell-based; design: key to growth on plate, GT598: −: No growth was observed; +: normal growth was seen; conditions: for growth inhibition test, inhibitory concentration, GT598: tested at 1, 5, 30, 60 μg/mL, 7 days; for growth on plate, GT598: 60 μg/mL, 7 days at 30° C.
Protocol: (§1) This Example examines the effect of brominated furanones on the growth of fungi associated with damage to building material. Six fungal strains were the subject of these experiments; Gloeophyllum trabeum (strains GT598 and GT599), Chaetomium globosum (wildtype strain and CG572), and Trametes versicolor (strains TV7B2-59 and TV57MAD277). The species were developed on 2% Malt-Extract Agar (MEA) plates and stored inverted at 4° C. The stocks were refreshed by streaking new plates every two months.
(§2) The brominated and non-brominated furanones were added to MAE agar plates at different concentrations. The brominated furanones were dissolved in either ethanol (“EtOH”) or methanol (“MeOH”) as stock solutions, as shown in Table 5. The non-brominated furanones were purchased from Sigma (St. Louis, Mo.). The furanone stocks were stored at 4° C.
(§3) MAE agar plates containing the same amounts of ethanol/methanol were also prepared as negative controls to eliminate any solvent effects. The plates were prepared using either 90 mm or 60 mm petri dishes and were stored inverted at 4° C. until use.
(§4) Different concentrations of furanones were studied to compare their antifungal activities. The plates were inoculated with the six fungal strains using a platinum loop and were incubated upside down at 30° C. for 7 days to monitor the growth. The initial screening was performed using a single 60 μg/mL furanone concentration.

[4] = test system: Gloeophyllum trabeum strain GT599; assay: Fungal growth on MEA plates with furanone; format: cell-based; design: key to growth on plate, GT599: −: No growth was observed; +: normal growth was seen; conditions: for growth inhibition test, inhibitory concentration, GT599: tested at 1, 5, 30, 60 μg/mL, 7 days; for growth on plate, GT599: 60 μg/mL, 7 days at 30° C.
Protocol: as §1, §2, §3, §4

[5] = test system: Chaetomium globosum wildtype strain (CG); assay: Fungal growth on MEA plates with furanone; format: cell-based; design: key to growth on plate, CG: −: No growth was observed; +: normal growth was seen; conditions: for growth inhibition test, inhibitory concentration, CG: tested at 1, 5, 30, 60 μg/mL, 7 days; for growth on plate, CG: 60 μg/mL, 7 days at 30° C.
Protocol: as §1, §2, §3, §4

[6] = test system: Chaetomium globosum CG572; assay: Fungal growth on MEA plates with furanone; format: cell-based; design: key to growth on plate, CG572: −: No growth was observed; +: normal growth was seen; conditions: for growth inhibition test, inhibitory concentration, CG572: tested at 1, 5, 30, 60 μg/mL, 7 days; for growth on plate, CG572: 60 μg/mL, 7 days at 30° C.
Protocol: as §1, §2, §3, §4

[7] = test system: Trametes versicolor strain TV7B2-59; assay: Fungal growth on MEA plates with furanone; format: cell-based; design: key to growth on plate, TV7B2-59: −: No growth was observed; +: normal growth was seen; conditions: for growth inhibition test, inhibitory concentration, TV7B2-59: tested at 1, 5, 30, 60 μg/mL, 7 days; for growth on plate, TV7B2-59: 60 μg/mL, 7 days at 30° C.
Protocol: as §1, §2, §3, §4

[8] = test system: Trametes versicolor strain TV57MAD277; assay: Fungal growth on MEA plates with furanone; format: cell-based; design: key to growth on plate, TV57MAD277: −: No growth was observed; +: normal growth was seen; conditions: for growth inhibition test, inhibitory concentration, TV57MAD277: tested at 1, 5, 30, 60 μg/mL, 7 days; for growth on plate, TV57MAD277: 60 μg/mL, 7 days at 30° C.
Protocol: as §1, §2, §3, §4

[9] = test system: E. coli; assay: E. coli growth inhibition (results not shown); format: cell-based
[10] = test system: six fungal strains (Gloeophyllum trabeum, Chaetomium globosum, Trametes versicolor); assay: Fungal growth on MEA plates with furanone, statements for all six strains; format: cell-based; conditions: for growth inhibition of the six fungal strains, comparison: 1 to 60 μg/mL
Protocol: as §1, §2, §3, §4

[11] = test system: Candida albicans strain SC5341; assay: C. albicans growth curves in SD medium with furanones (96-well plates, OD600); format: cell-based; conditions: tested 2.5, 5, 10, 20 μg/mL
Protocol: To evaluate the effects of furanones on fungal growth, C. albicans was grown in a synthetic dextrose (“SD”) medium supplemented with 0, 2.5, 5, 10, or 20 μg/mL of one of eight different brominated furanones and […] furanones (BF1, BF8, BF9, BF11, BF12, BF14, NF1, NF2, or NF3).
The Candida albicans strain SC5341 used in this study was provided by Dr. Sean Palecek from the University of Wisconsin-Madison. C. albicans was routinely grown overnight at 30° C. and shaken at 200 rpm in a SD medium containing 0.67% (wt/vol) yeast nitrogen base without amino acids and 2% (wt/vol) dextrose, which was buffered with 0.165 M morpholinepropanesulfonic acid (MOPS, Sigma), and pH-adjusted to 7.0 with solid NaOH. The overnight culture was then sub-cultured in 25 mL of fresh SD medium to an initial optical density at 600 nm (OD600) of 0.005 and grown till the OD600 reached 1.0. The OD600 values were measured using a Spectronic GENESYS 5 UV-Vis spectrophotometer (Thermo Fisher Scientific®, Waltham, Mass.). This culture was used to inoculate sterile 96-well plates (Costar® No. 9017, Corning®, Corning, N.Y.) containing SD medium supplemented with furanones at different concentrations (0, 2.5, 5, 10, 20 μg/mL) to an OD600 of 0.06 in at least duplicates. The BF1, 8, 9, 11, 12, 14 and NF1-3 compounds were dissolved in ethanol at a concentration of 20 mg/mL. The BF10 compound was dissolved in methanol at a concentration of 20 mg/mL. The amounts of methanol and ethanol were adjusted to be the same for each sample to eliminate the effects of solvents. The samples were then incubated at 30° C. with shaking at 200 rpm, and the OD600 in each well was measured at 0, 4, 7, 17, and 42 hours after inoculation, using an ELx808™ Absorbance Microplate Reader (BioTek Instruments® Inc., Winooski, Vt.).

SMILES | inhibitory effect on planktonic growth ([1]; 30 μg/mL) | inhibition of biofilm formation ([2]; 30 μg/mL) | inhibition of biofilm formation ([2]; 60 μg/mL) | growth inhibition test, inhibitory concentration, GT598 [3] [µg/mL] | growth inhibition test, inhibitory concentration, GT599 [4] [µg/mL] | growth inhibition test, inhibitory concentration, CG [5] [µg/mL] | growth inhibition test, inhibitory concentration, CG572 [6] [µg/mL] | growth inhibition test, inhibitory concentration, TV7B2-59 [7] [µg/mL] | growth inhibition test, inhibitory concentration, TV57MAD277 [8] [µg/mL] | other results
CC1=C(Br)C(C(Br)Br)OC1=O (stereo not drawn) [BF13, 4-bromo-5-(dibromomethyl)-3-methylfuran-2(5Br)-one] | did not exhibit significant inhibitory effects | significantly inhibited | significantly inhibited | 60 | 60 | 60 | 60 | 60 | 5 | 
O=C1O/C(=C\Br)C(Br)=C1CBr [BF12, 4-bromo-3-(bromomethyl)-5Z-(bromomethylene)furan-2-one] |  | significantly inhibited | significantly inhibited | 1 | 5 | 1 | 5 | 5 | 5 | growth inhibition of E. coli [9]: significantly inhibit; reduction of specific growth rate compared to furanone-free control ([1]; 30 μg/mL): 91.2%; reduction of specific growth rate compared to furanone-free control ([1]; 60 μg/mL): 100%; growth inhibition of the six fungal strains, comparison [10]: most significant inhibition
COC1=CC(=O)OC1 [NF2, 4-Methoxy-2(5H)-furanone; IUPAC: 4-methoxy-2(5H)-furanone, reference compound] |  |  |  |  |  |  |  |  |  | growth inhibition of the six fungal strains ([10]; 60 μg/mL, 7 days): did not show any apparent inhibition
O=C1OC(=C(Br)Br)C=C1CBr [BF11, 3-(bromomethyl)-5-(dibromomethylene)furan-2-one] |  | significantly inhibited | significantly inhibited | 1 | 5 | 5 | 5 | 5 | 5 | growth inhibition of E. coli [9]: significantly inhibit; reduction of specific growth rate compared to furanone-free control ([1]; 30 μg/mL): 27.3%; reduction of specific growth rate compared to furanone-free control ([1]; 60 μg/mL): 65.0%; growth on plate, GT598 [3]: −; growth on plate, GT599 [4]: −; growth on plate, CG [5]: −; growth on plate, CG572 [6]: −; growth on plate, TV7B2-59 [7]: −; growth on plate, TV57MAD277 [8]: −; growth inhibition of the six fungal strains, comparison [10]: most significant inhibition
CC1=CC(=O)OC1=O [NF1, Citraconic anhydride; IUPAC: 3-methyl-2,5-furandione, reference compound] | did not exhibit significant inhibitory effects |  |  | 60 | 60 | 60 | 60 | 60 | 60 | 
CC1=C(Br)C(C(Br)Br)OC1=O (stereo not drawn) [BF14, 4-bromo-5-(dibromomethyl)-3-methylfuran-2(5H)-one] | did not exhibit significant inhibitory effects |  |  |  |  |  |  |  |  | lowest concentration showing growth inhibition [11]: 20 µg/mL; inhibition of biofilm formation ([2]; 30 and 60 μg/mL): non-inhibitory
CC1=CC(C)OC1=O (stereo not drawn) [NF3, 3,5-Dimethylfuran-2(5H)-one, reference compound] | did not exhibit significant inhibitory effects |  |  |  |  |  |  |  |  | 
O=C1C=C(CBr)C(=O)O1 [BF15, 3-(bromomethyl)-2,5-furandione] |  |  |  |  |  |  |  |  |  | growth on plate, GT598 [3]: −; growth on plate, GT599 [4]: −; growth on plate, CG [5]: −; growth on plate, CG572 [6]: −; growth on plate, TV7B2-59 [7]: −; growth on plate, TV57MAD277 [8]: −
